{"source": "patent US20160296658A1", "about": "“NOVEL ACTIVE INGREDIENT IN CICATRIZATION AND USE THEREOF” (LABORATOIRES URGO, priority 2007, published 2016)", "system": "normal human dermal fibroblasts (NHDF) R9PF2", "assay": "NHDF proliferation by incorporation of tritiated thymidine", "format": "cell-based", "details": "dilution in culture medium at 0.011 mg/mL; 48 hours", "protocol": "Type: pool of normal human dermal fibroblasts (NHDF) R9PF2\nDMEM (Dulbecco's Modified Eagle Medium, Invitrogen 21969035)\nDressings having the size of the wells, prepared as described previously using the elastomeric masses of examples 1 to 5, and also dilutions of the Sepinov EMT 10 copolymer to 0.011 mg/mL and of potassium sucrose octasulfate to 0.00064 mg/mL, were tested.\nEffects on Proliferation:\nThe fibroblasts were seeded into 12-well plates at low density (60% confluence), and then the cells were treated with the dilutions or pieces of dressings were applied to these plates and kept in place by means of a plug (called “test”). A control without dressing, without dilution but with plug was carried out (called “control”).\nThe cells were then incubated for 24 hours, 48 hours and 72 hours. For each incubation time, tritiated thymidine ([methyl-3H]-thymidine, Amersham TRK 686 2.5 μCi/mL final concentration) was added for the final 24 hours of incubation and then the DNA of the cells of the cell layers was extracted and purified and the radioactivity incorporated into the DNA was counted using a scintillation counter.\nThe results obtained are expressed as counts per minute (cpm), then as percentage relative to the control according to the following formula:\n%control=(Cpmtest/cmpcontrol)×100 […]", "data": [{"smiles": "O=S(=O)([O-])OC[C@H]1O[C@@](COS(=O)(=O)[O-])(O[C@H]2O[C@H](COS(=O)(=O)[O-])[C@@H](OS(=O)(=O)[O-])[C@H](OS(=O)(=O)[O-])[C@H]2OS(=O)(=O)[O-])[C@@H](OS(=O)(=O)[O-])[C@@H]1OS(=O)(=O)[O-].[K+].[K+].[K+].[K+].[K+].[K+].[K+].[K+]", "note": "[Potassium sucrose octasulfate, potassium sucrose octasulfate]", "values": [{"measurement": "NHDF proliferation, % control", "result": 106, "unit": "% control"}]}]}
